Columns and labels:
barnyard grass [1] = test: Test Example 3: herbicidal effect by foliage application, Wagner pot (Table 18, symbol H); type: in vivo, barnyard grass (Echinochloa crus-galli); conditions: 320 g/ha
How it was run: (§1)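 Plants were sown in alluvial soil held under 0.1–0.5 cm standing water and grown 14 days in a greenhouse at 25–30 °C. An emulsifiable formulation, water-diluted to the set dose, was then sprayed onto the foliage, and effects were scored three weeks later using previously defined criteria.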

Chinese sprangletop = test: Test Example 3: herbicidal effect by foliage application, Wagner pot (Table 18, symbol D); type: in vivo, chinese sprangletop (Leptochloa chinensis); conditions: 320 g/ha
How it was run: as §1

rice flat sedge = test: Test Example 3: herbicidal effect by foliage application, Wagner pot (Table 18, symbol E); type: in vivo, rice flat sedge (Cyperus iria); conditions: 320 g/ha
How it was run: as §1

southern crabgrass [2] = test: Test Example 4: herbicidal effect by soil treatment (Table 19, symbol F); type: in vivo, southern crabgrass (Digitaria ciliaris); conditions: amount of applied herbicide 320 g/ha
How it was run: (§2)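 Scoring uses the grading scale of an earlier test, three weeks post-application. Treatment consists of spraying a diluted emulsion formulation across the surface of sterilized diluvial soil in which seeds are buried near 1.5 cm deep; boxes are kept in a greenhouse between 25° C. and 30° C.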

green foxtail [3] = test: Test Example 4: herbicidal effect by soil treatment (Table 19, symbol G); type: in vivo, green foxtail (Setaria viridis); conditions: amount of applied herbicide 320 g/ha
How it was run: as §2

barnyard grass [4] = test: Test Example 4: herbicidal effect by soil treatment (Table 19, symbol H); type: in vivo, barnyard grass (Echinochloa crus-galli); conditions: amount of applied herbicide 320 g/ha
How it was run: as §2

wild oat [5] = test: Test Example 4: herbicidal effect by soil treatment (Table 19, symbol I); type: in vivo, wild oat (Avena fatua); conditions: amount of applied herbicide 320 g/ha
How it was run: as §2

blackgrass [6] = test: Test Example 4: herbicidal effect by soil treatment (Table 19, symbol J); type: in vivo, blackgrass (Alopecurus myosuroides); conditions: amount of applied herbicide 320 g/ha
How it was run: as §2

Italian ryegrass [7] = test: Test Example 4: herbicidal effect by soil treatment (Table 19, symbol K); type: in vivo, Italian ryegrass (Lolium multiflorum); conditions: amount of applied herbicide 320 g/ha
How it was run: as §2

windgrass [8] = test: Test Example 4: herbicidal effect by soil treatment (Table 19, symbol L); type: in vivo, windgrass (Apera spica-venti); conditions: amount of applied herbicide 320 g/ha
How it was run: as §2

velvetleaf [9] = test: Test Example 4: herbicidal effect by soil treatment (Table 19, symbol M); type: in vivo, velvetleaf (Abutilon theophrasti); conditions: amount of applied herbicide 320 g/ha
How it was run: as §2

redroot pigweed [10] = test: Test Example 4: herbicidal effect by soil treatment (Table 19, symbol N); type: in vivo, redroot pigweed (Amaranthus retroflexus); conditions: amount of applied herbicide 320 g/ha
How it was run: as §2

lambsquarters [11] = test: Test Example 4: herbicidal effect by soil treatment (Table 19, symbol O); type: in vivo, lambsquarters (Chenopodium album); conditions: amount of applied herbicide 320 g/ha
How it was run: as §2

chickweed [12] = test: Test Example 4: herbicidal effect by soil treatment (Table 19, symbol P); type: in vivo, common chickweed (Stellaria media); conditions: amount of applied herbicide 320 g/ha
How it was run: as §2

persian speedwell [13] = test: Test Example 4: herbicidal effect by soil treatment (Table 19, symbol R); type: in vivo, Persian speedwell (Veronica persica); conditions: amount of applied herbicide 320 g/ha
How it was run: as §2

southern crabgrass [14] = test: Test Example 5: herbicidal effect by foliage application, plastic box (Table 20, symbol F); type: in vivo, southern crabgrass (Digitaria ciliaris)
How it was run: (§3)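 Post-emergence foliar test in sterilized diluvial soil. Compound applied as water-diluted emulsion at a predetermined rate to 14-day-old plants; evaluation at three weeks.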

green foxtail [15] = test: Test Example 5: herbicidal effect by foliage application, plastic box (Table 20, symbol G); type: in vivo, green foxtail (Setaria viridis)
How it was run: as §3

barnyard grass [16] = test: Test Example 5: herbicidal effect by foliage application, plastic box (Table 20, symbol H); type: in vivo, barnyard grass (Echinochloa crus-galli)
How it was run: as §3

wild oat [17] = test: Test Example 5: herbicidal effect by foliage application, plastic box (Table 20, symbol I); type: in vivo, wild oat (Avena fatua)
How it was run: as §3

blackgrass [18] = test: Test Example 5: herbicidal effect by foliage application, plastic box (Table 20, symbol J); type: in vivo, blackgrass (Alopecurus myosuroides)
How it was run: as §3

Italian ryegrass [19] = test: Test Example 5: herbicidal effect by foliage application, plastic box (Table 20, symbol K); type: in vivo, Italian ryegrass (Lolium multiflorum)
How it was run: as §3

windgrass [20] = test: Test Example 5: herbicidal effect by foliage application, plastic box (Table 20, symbol L); type: in vivo, windgrass (Apera spica-venti)
How it was run: as §3

velvetleaf [21] = test: Test Example 5: herbicidal effect by foliage application, plastic box (Table 20, symbol M); type: in vivo, velvetleaf (Abutilon theophrasti)
How it was run: as §3

redroot pigweed [22] = test: Test Example 5: herbicidal effect by foliage application, plastic box (Table 20, symbol N); type: in vivo, redroot pigweed (Amaranthus retroflexus); conditions: amount of applied herbicide 320 g/ha; foliage application after 14-day growth; evaluated three weeks after application
How it was run: as §3

lambsquarters [23] = test: Test Example 5: herbicidal effect by foliage application, plastic box (Table 20, symbol O); type: in vivo, lambsquarters (Chenopodium album); conditions: amount of applied herbicide 320 g/ha; foliage application after 14-day growth; evaluated three weeks after application
How it was run: as §3

chickweed [24] = test: Test Example 5: herbicidal effect by foliage application, plastic box (Table 20, symbol P); type: in vivo, common chickweed (Stellaria media); conditions: amount of applied herbicide 320 g/ha; foliage application after 14-day growth; evaluated three weeks after application
How it was run: as §3

false cleavers = test: Test Example 5: herbicidal effect by foliage application, plastic box (Table 20, symbol Q); type: in vivo, false cleavers (Galium spurium)
How it was run: as §3

persian speedwell [25] = test: Test Example 5: herbicidal effect by foliage application, plastic box (Table 20, symbol R); type: in vivo, Persian speedwell (Veronica persica)
How it was run: as §3

late watergrass = test: Test Example 1: herbicidal activity, application before weed generation under submerged conditions (Table 16, symbol A); type: in vivo, late watergrass (Echinochloa oryzicola); conditions: amount of applied herbicide 320 g/ha
How it was run: (§4)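 Submerged Wagner pots (alluvial soil, 4 cm water) sown with weed seeds and planted with 2.5-leaf rice seedlings; emulsifiable concentrate diluted in water applied to water surface on sowing day. Held in greenhouse at 25-30 °C; injury scored 0-5 by herbicidal rate after three weeks.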

Japanese bulrush = test: Test Example 1: herbicidal activity, application before weed generation under submerged conditions (Table 16, symbol B); type: in vivo, Japanese bulrush (Schoenoplectus juncoides); conditions: amount of applied herbicide 320 g/ha
How it was run: as §4

oval-leafed pondweed = test: Test Example 1: herbicidal activity, application before weed generation under submerged conditions (Table 16, symbol C); type: in vivo, oval-leafed pondweed (Monochoria vaginalis); conditions: amount of applied herbicide 320 g/ha
How it was run: as §4

[26] = amount of applied herbicide 320 g/ha, foliage application after 14-day growth, evaluated three weeks after application
[27] = foliage application, 320 g/ha, three weeks after application

For COc1ccc(-c2sc3cc(F)c(F)cc3c2-c2c(O)c(C)nn(C)c2=O)cc1 [5-014], the “herbicidal effect on barnyard grass (H)” value (barnyard grass [1]) was 4 (Herbicidal rate of 70% or more and less than 90%), the “herbicidal effect on Chinese sprangletop (D)” value (Chinese sprangletop) was 0 (Herbicidal rate of 5% or less (almost no effect)) and the “herbicidal effect on rice flat sedge (E)” value (rice flat sedge) was 5 (Herbicidal rate of 90% or more (almost completely withered)). The “F: southern crabgrass, herbicidal effect grade” value (southern crabgrass [2]) was 0 (Herbicidal rate of 5% or less (almost no effect)), the “G: green foxtail, herbicidal effect grade” value (green foxtail [3]) was 1 (Herbicidal rate of 5% or more and less than 20%) and the “H: barnyard grass, herbicidal effect grade” value (barnyard grass [4]) was 2 (Herbicidal rate of 20% or more and less than 40%). For the same compound, the “I: wild oat, herbicidal effect grade” value (wild oat [5]) was 0 (Herbicidal rate of 5% or less (almost no effect)), the “J: blackgrass, herbicidal effect grade” value (blackgrass [6]) was 0 (Herbicidal rate of 5% or less (almost no effect)) and the “K: Italian ryegrass, herbicidal effect grade” value (Italian ryegrass [7]) was 0 (Herbicidal rate of 5% or less (almost no effect)). For the same compound, the “L: windgrass, herbicidal effect grade” value (windgrass [8]) was 0 (Herbicidal rate of 5% or less (almost no effect)), the “M: velvetleaf, herbicidal effect grade” value (velvetleaf [9]) was 4 (Herbicidal rate of 70% or more and less than 90%) and the “N: redroot pigweed, herbicidal effect grade” value (redroot pigweed [10]) was 5 (Herbicidal rate of 90% or more (almost completely withered)). For the same compound, the “O: lambsquarters, herbicidal effect grade” value (lambsquarters [11]) was 5 (Herbicidal rate of 90% or more (almost completely withered)), the “P: chickweed, herbicidal effect grade” value (chickweed [12]) was 3 (Herbicidal rate of 40% or more and less than 70%) and the “R: persian speedwell, herbicidal effect grade” value (persian speedwell [13]) was 5 (Herbicidal rate of 90% or more (almost completely withered)). The “Herbicidal effect by foliage application, F: southern crabgrass” value (southern crabgrass [14]; [26]) was 3 (Herbicidal rate of 40% or more and less than 70%), the “Herbicidal effect by foliage application, G: green foxtail” value (green foxtail [15]; [26]) was 2 (Herbicidal rate of 20% or more and less than 40%) and the “Herbicidal effect by foliage application, H: barnyard grass” value (barnyard grass [16]; [26]) was 2 (Herbicidal rate of 20% or more and less than 40%). The “Herbicidal effect by foliage application, I: wild oat” value (wild oat [17]; [26]) was 0 (Herbicidal rate of 5% or less (almost no effect)), the “Herbicidal effect by foliage application, J: blackgrass” value (blackgrass [18]; [26]) was 0 (Herbicidal rate of 5% or less (almost no effect)) and the “Herbicidal effect by foliage application, K: Italian ryegrass” value (Italian ryegrass [19]; [26]) was 4 (Herbicidal rate of 70% or more and less than 90%). For the same compound, the “Herbicidal effect by foliage application, L: windgrass” value (windgrass [20]; [26]) was 0 (Herbicidal rate of 5% or less (almost no effect)), the “Herbicidal effect by foliage application, M: velvetleaf” value (velvetleaf [21]; [26]) was 5 (Herbicidal rate of 90% or more (almost completely withered)) and the “Herbicidal effect by foliage application, N: redroot pigweed” value (redroot pigweed [22]) was 5 (Herbicidal rate of 90% or more (almost completely withered)). The “Herbicidal effect by foliage application, O: lambsquarters” value (lambsquarters [23]) was 5 (Herbicidal rate of 90% or more (almost completely withered)), the “Herbicidal effect by foliage application, P: chickweed” value (chickweed [24]) was 5 (Herbicidal rate of 90% or more (almost completely withered)) and the “Herbicidal effect by foliage application, Q: false cleavers” value (false cleavers; [26]) was 4 (Herbicidal rate of 70% or more and less than 90%). The “Herbicidal effect by foliage application, R: persian speedwell” value (persian speedwell [25]; [26]) was 5 (Herbicidal rate of 90% or more (almost completely withered)).

With COc1cc2sc(-c3ccccc3)c(-c3c(O)c(C)nn(C)c3=O)c2cc1OC [5-055] the “Herbicidal effect, A: late watergrass” value (late watergrass) was 2 (Herbicidal rate of 20% or more and less than 40%), the “Herbicidal effect, B: Japanese bulrush” value (Japanese bulrush) was 0 (Herbicidal rate of 5% or less (almost no effect)) and the “Herbicidal effect, C: oval-leafed pondweed” value (oval-leafed pondweed) was 0 (Herbicidal rate of 5% or less (almost no effect)). The “herbicidal effect on barnyard grass (H)” value (barnyard grass [1]) was 1 (Herbicidal rate of 5% or more and less than 20%), the “herbicidal effect on Chinese sprangletop (D)” value (Chinese sprangletop) was 0 (Herbicidal rate of 5% or less (almost no effect)) and the “herbicidal effect on rice flat sedge (E)” value (rice flat sedge) was 3 (Herbicidal rate of 40% or more and less than 70%). The “herbicidal effect on southern crabgrass (F)” value (southern crabgrass [14]; [27]) was 0 (Herbicidal rate of 5% or less (almost no effect)), the “herbicidal effect on green foxtail (G)” value (green foxtail [15]; [27]) was 0 (Herbicidal rate of 5% or less (almost no effect)) and the “herbicidal effect on barnyard grass (H)” value (barnyard grass [16]; [27]) was 0 (Herbicidal rate of 5% or less (almost no effect)). For the same compound, the “herbicidal effect on wild oat (I)” value (wild oat [17]; [27]) was 0 (Herbicidal rate of 5% or less (almost no effect)), the “herbicidal effect on blackgrass (J)” value (blackgrass [18]; [27]) was 0 (Herbicidal rate of 5% or less (almost no effect)) and the “herbicidal effect on Italian ryegrass (K)” value (Italian ryegrass [19]; [27]) was 4 (Herbicidal rate of 70% or more and less than 90%). The “herbicidal effect on windgrass (L)” value (windgrass [20]; [27]) was 0 (Herbicidal rate of 5% or less (almost no effect)), the “herbicidal effect on velvetleaf (M)” value (velvetleaf [21]; [27]) was 2 (Herbicidal rate of 20% or more and less than 40%) and the “herbicidal effect on false cleavers (Q)” value (false cleavers; [27]) was 0 (Herbicidal rate of 5% or less (almost no effect)). For the same compound, the “herbicidal effect on persian speedwell (R)” value (persian speedwell [25]; [27]) was 4 (Herbicidal rate of 70% or more and less than 90%).

From patent US20230085307A1, “PYRIDAZINONE COMPOUND AND HERBICIDE” (NISSAN CHEMICAL CORPORATION, priority 2019, published 2023)
